Assay [1] deals with small coronary artery. Briefly: tissue or blood. Format: cell-based, dogs. As to conditions: Canis lupus familiaris, read-out: ED50 Small (S).
In assay [2] the test system is large coronary artery. Briefly: tissue or blood. The class given is cell-based, dogs. As to conditions: for EC50: Canis lupus familiaris, read-out: ED50 Large (L); for S/L: dog, coronary artery strips.

≈ marks a conversion by molar mass, not a printed value. Some results are limits rather than exact numbers.

Consider `O=[N+]([O-])OCc1cccnc1` [Compound A, 3-Nitroxymethylpyridine, reference compound], for which the EC50 in assay [1] came out at 1.9 µg/mL (≈ 12.3 µM); in assay [2] it was 0.08 µg/mL (≈ 0.519 µM). The S/L in assay [2] was determined as 23.8.

As for `O=[N+]([O-])OCc1cccc(Cl)n1` [Compound D, 2-Nitroxymethyl-6-chloropyridine], the EC50 in assay [1] is 6.2 µg/mL (≈ 32.9 µM). Also, in assay [2], the EC50 was found to be 0.0067 µg/mL (≈ 0.0355 µM) and the S/L stood at 925.

Take `O=[N+]([O-])OCCCc1ccncc1` [Compound C, 4-(3-Nitroxypropyl)pyridine]: in assay [1], the EC50 was above 10 µg/mL. Moreover, in assay [2], the EC50 was found to be 0.0125 µg/mL (≈ 0.0686 µM) and the S/L is above 800.
